In patent publication US20140323414A1 (priority 2011, published 2014):

Tested on: live anesthetized rats
Settings: rat, in vivo

SMILES: CNCC(O)c1ccc(O)c(O)c1 (stereo not shown) [Adrenalin]
- rhythm disturbances: induced rhythm disturbances
